Experimental findings from US20260285876A1, “MACROCYCLIC COMPOUNDS AS USP1 INHIBITORS” (GUANGDONG NEWOPP BIOPHARMACEUTICALS CO., LTD., priority 2023, published 2026) are described below.

The assay has as its target T1, USP1/UAF1 (Homo sapiens, UniProt O94782).
T1 construct: purchased R&D Systems
Description: Deubiquitination assay for USP1/UAF1 (ubiquitin-rhodamine 110 substrate). In kind it is biochemical. The note with it: 0.5 nM USP1/UAF1, 150 nM ubiquitin-rhodamine, 50% inhibition compared to DMSO control. On the procedure:
Deubiquitination assay for USP1/UAF1: compounds described here were tested for their ability to inhibit USP1 deubiquitinase activity in this assay using ubiquitin-rhodamine 110 as the substrate. The assay was conducted in the assay buffer (50 mM Tris-HCl, pH 7.8, 0.5 mM EDTA, 0.1 mg/ml Bovine Serum Albumin, 1 mM DTT, 0.01% Tween-20) in 384 well plates. 0.5 nM USP1/UAF1 (R&D Systems) was incubated with compounds in dose response format for 10 minutes at room temperature. Then the reaction was initiated by addition of 150 nM ubiquitin-rhodamine (R&D Systems). The fluorescence intensity was read after 45 minutes at Ex488/Em535 by CLARIOstar (BMG Labtech). IC50 response curves were plotted.

T1 sequence (O94782 whole entry): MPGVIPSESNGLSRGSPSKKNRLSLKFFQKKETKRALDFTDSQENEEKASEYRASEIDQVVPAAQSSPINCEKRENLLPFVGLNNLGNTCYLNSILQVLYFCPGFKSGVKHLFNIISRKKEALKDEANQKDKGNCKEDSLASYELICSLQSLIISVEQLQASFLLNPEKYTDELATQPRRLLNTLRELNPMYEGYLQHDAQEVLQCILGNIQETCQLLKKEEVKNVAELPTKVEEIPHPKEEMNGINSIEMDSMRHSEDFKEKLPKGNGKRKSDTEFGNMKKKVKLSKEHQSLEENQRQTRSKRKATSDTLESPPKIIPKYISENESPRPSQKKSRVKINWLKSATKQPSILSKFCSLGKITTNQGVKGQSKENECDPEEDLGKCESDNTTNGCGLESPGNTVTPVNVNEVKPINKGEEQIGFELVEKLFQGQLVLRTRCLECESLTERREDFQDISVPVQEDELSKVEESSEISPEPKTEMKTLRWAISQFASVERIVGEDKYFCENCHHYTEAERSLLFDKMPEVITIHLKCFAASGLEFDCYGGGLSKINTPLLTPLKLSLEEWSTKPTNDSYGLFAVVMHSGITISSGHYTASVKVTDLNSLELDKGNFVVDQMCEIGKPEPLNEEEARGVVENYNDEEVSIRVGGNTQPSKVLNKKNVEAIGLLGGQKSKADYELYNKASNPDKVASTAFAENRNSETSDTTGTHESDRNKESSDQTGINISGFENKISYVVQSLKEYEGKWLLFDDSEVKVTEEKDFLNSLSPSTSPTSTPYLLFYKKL
T1 sequence (Q8TAF3 whole entry partner): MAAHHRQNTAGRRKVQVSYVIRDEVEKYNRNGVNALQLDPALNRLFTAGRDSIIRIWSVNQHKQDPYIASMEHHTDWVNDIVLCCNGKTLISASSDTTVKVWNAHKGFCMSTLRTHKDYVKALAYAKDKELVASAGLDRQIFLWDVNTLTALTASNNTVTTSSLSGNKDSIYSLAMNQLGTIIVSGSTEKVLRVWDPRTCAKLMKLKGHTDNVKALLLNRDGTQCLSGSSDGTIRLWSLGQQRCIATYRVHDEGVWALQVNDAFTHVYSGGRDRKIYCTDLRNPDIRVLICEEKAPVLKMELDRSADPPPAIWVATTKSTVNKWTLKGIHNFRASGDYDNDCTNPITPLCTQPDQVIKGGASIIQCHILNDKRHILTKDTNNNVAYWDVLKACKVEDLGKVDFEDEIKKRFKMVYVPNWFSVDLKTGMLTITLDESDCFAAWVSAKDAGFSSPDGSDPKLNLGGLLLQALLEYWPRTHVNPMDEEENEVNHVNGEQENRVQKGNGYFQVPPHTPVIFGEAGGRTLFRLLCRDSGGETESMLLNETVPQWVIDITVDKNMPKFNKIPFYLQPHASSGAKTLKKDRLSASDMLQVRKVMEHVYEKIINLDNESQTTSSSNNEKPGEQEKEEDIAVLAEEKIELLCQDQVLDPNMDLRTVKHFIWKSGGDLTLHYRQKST

Usually IC50 stands for the concentration needed to halve the response being measured. Read a low IC50 as higher potency. With `CC(C)n1cc(C(F)(F)F)nc1-c1ccc2c(c1)COCCOc1ncnc(C3CC3)c1-c1ncc3cnn(c3n1)C2` [Example 28, 1^6cyclopropyl-4^4-(1-isopropyl-4-(trifluoromethyl)-1H-imidazol-2-yl)-2^1H-6,9-dioxa-2(6,1)-pyrazolo[3,4-d]pyrimidina-1(5,4)-pyrimidina-4(1,2)-benzenacyclononaphane], the IC50 was at most 100 nM.
The figure for “1^6-cyclopropyl-4^4-(1-isopropyl-4-(trifluoromethyl)-1H-imidazol-2-yl)-2^1H-9-oxa-5-aza-2(6,1)-pyrazolo[3,4-d]pyrimidina-1(5,4)-pyrimidina-4(1,2)-benzenacyclononaphan-6-one [Example 15]” is at least 1000 nM.
The figure for `CC(C)n1cc(C(F)(F)F)nc1-c1ccc2c(c1)OCCCCOc1ncnc(C3CC3)c1-c1ncc3cnn(c3n1)C2` [Example 3, 1^6-cyclopropyl-4^4-(1-isopropyl-4-(trifluoromethyl)-1H-imidazol-2-yl)-2^1H-5,10-dioxa-2(6,1)-pyrazolo[3,4-d]pyrimidina-1(5,4)-pyrimidina-4(1,2)-benzenacyclodecaphane] is at least 1000 nM; for `FC(F)(F)c1cn(C2CC2)c(-c2ccc3c(c2)/C=C/COc2ncnc(C4CC4)c2-c2ncc4ccc(n4n2)C3)n1` [Example 39, (2^1Z,5E)-1^6-cyclopropyl-4^4-(1-cyclopropyl-4-(trifluoromethyl)-1H-imidazol-2-yl)-8-oxa-2(2,7)-pyrrolo[2,1-f][1,2,4]triazina-1(5,4)-pyrimidina-4(1,2)-benzenacyclooctaphan-5-ene] it is 100 to 1000 nM.
As for `Fc1cc2n3nc(ncc13)-c1c(ncnc1C1CC1)OCCOc1cc(-c3nc(C(F)(F)F)cn3C3CC3)ccc1C2` [Example 34, (Z)-1^6-cyclopropyl-4^4-(1-cyclopropyl-4-(trifluoromethyl)-1H-imidazol-2-yl)-2^5-fluoro-5,8-dioxa-2(2,7)-pyrrolo[2,1-f][1,2,4]triazina-1(5,4)-pyrimidina-4(1,2)-benzenacyclooctaphane], the IC50 is at most 100 nM.
The same measure for `CC(C)n1cc(C(F)(F)F)nc1-c1ccc2c(c1)CCCOc1ncnc(C3CC3)c1-c1ncc3ccc(=O)n(c3n1)C2` [Example 25, 1^6-cyclopropyl-4^4-(1-isopropyl-4-(trifluoromethyl)-1H-imidazol-2-yl)-2^7,2^8-dihydro-8-oxa-2(2,8)-pyrido[2,3-d]pyrimidina-1(5,4)-pyrimidina-4(1,2)-benzenacyclooctaphan-2^7-one]: at most 100 nM.
The figure for `CC(C)n1cc(C(F)(F)F)nc1-c1ccc2c(c1)OCC1(CC1)COc1ncnc(C3CC3)c1-c1ncc3cnn(c3n1)C2` [Example 12, 6′-cyclopropyl-4′-(1-isopropyl-4-(trifluoromethyl)-1H-imidazol-2-yl)spiro[cyclopropane-1,7′-5,9-dioxa-2(6,1)-pyrazolo[3,4-d]pyrimidina-1(5,4)-pyrimidina-4(1,2)-benzenacyclononaphane]] is 100 to 1000 nM.
The same measure for `CC(C)n1cc(C(F)(F)F)nc1-c1ccc2c(c1)CCOc1ncnc(C3CC3)c1-c1ncc3cnn(c3n1)C2` [Example 4, 1^6-cyclopropyl-4^4-(1-isopropyl-4-(trifluoromethyl)-1H-imidazol-2-yl)-2^1H-7-oxa-2(6,1)-pyrazolo[3,4-d]pyrimidina-1(5,4)-pyrimidina-4(1,2)-benzenacycloheptaphane]: at least 1000 nM; for `CC(C)n1cc(C(F)(F)F)nc1-c1ccc2c(c1)C#CCOc1ncnc(C3CC3)c1-c1ncc3cnn(c3n1)C2` [Example 54, (E)-16-cyclopropyl-44-(1-isopropyl-4-(trifluoromethyl)-1H-imidazol-2-yl)-21H-9-oxa-2(6,1)-pyrazolo[3,4-d]pyrimidina-1(5,4)-pyrimidina-4(1,2)-benzenacyclononaphan-5-ene4(1,2 benzenacyclononaphane]: at most 100 nM.
